The test system of the assay is GM1 production in Jurkat cells. In words: cells. It is filed as cell-based.

The results in this text go back to US12522602B2, “Derivatives having 2,3-dihydro-1H-indene or 2,3-dihydrobenzofuran moiety or pharmaceutically acceptable salt thereof and pharmaceutical compositions comprising the same” (YUHAN CORPORATION, priority 2019, dated 2026).

pIC50: −log10 of the molar value. Where two headings read alike, the source gives them in different places.

For `CC1(C)Cc2ccc(-c3ccc(C(F)(F)F)cc3)cc2C1NC(=O)O[C@@H]1CN2CCC1CC2` (stereo partly drawn) [Example 51, (S)-quinuclidin-3-yl (2,2-dimethyl-6-(4-(trifluoromethyl)phenyl)-2,3-dihydro-1H-inden-1-yl)carbamate], the negative logarithm of the IC50 (pIC50) (in general, the IC50 on a negative log10 scale, so that one unit is a factor of ten) (Homo sapiens, Jurkat, 72 h) was 7.52.
`CC1(C)Cc2ccc(-c3ccc(OC(F)(F)F)cc3)cc2C1NC(=O)O[C@@H]1CN2CCC1CC2` (stereo partly drawn) [Example 52, (S)-quinuclidin-3-yl (2,2-dimethyl-6-(4-(trifluoromethoxy)phenyl)-2,3-dihydro-1H-inden-1-yl)carbamate] gave a negative-log IC50 (pIC50) (Homo sapiens, Jurkat, 72 h) of 7.08.
With `CC1(C)Cc2ccc(-c3cccc(F)c3)cc2C1NC(=O)O[C@@H]1CN2CCC1CC2` (stereo partly drawn) [Example 53, (S)-quinuclidin-3-yl (6-(3-fluorophenyl)-2,2-dimethyl-2,3-dihydro-1H-inden-1-yl)carbamate], the negative-log IC50 (pIC50) (Homo sapiens, Jurkat, 72 h) is 7.10.
`CC1(C)Cc2ccc(-c3cccc(Cl)c3)cc2C1NC(=O)O[C@@H]1CN2CCC1CC2` (stereo partly drawn) [Example 54, (S)-quinuclidin-3-yl (6-(3-chlorophenyl)-2,2-dimethyl-2,3-dihydro-1H-inden-1-yl)carbamate] had a pIC50 (Homo sapiens, Jurkat, 72 h) of 6.79.
The molecule `CC1(C)Cc2ccc(-c3cccc(C(F)(F)F)c3)cc2C1NC(=O)O[C@@H]1CN2CCC1CC2` (stereo partly drawn) [Example 55, (S)-quinuclidin-3-yl (2,2-dimethyl-6-(3-(trifluoromethyl)phenyl)-2,3-dihydro-1H-inden-1-yl)carbamate] showed a negative-log IC50 (pIC50) (Homo sapiens, Jurkat, 72 h) of 6.76.
`CC1(C)Cc2ccc(-c3cccc(OC(F)(F)F)c3)cc2C1NC(=O)O[C@@H]1CN2CCC1CC2` (stereo partly drawn) [Example 56, (S)-quinuclidin-3-yl (2,2-dimethyl-6-(3-(trifluoromethoxy)phenyl)-2,3-dihydro-1H-inden-1-yl)carbamate] had a negative-log IC50 (pIC50) of 6.68.
`CC1(C)Cc2ccc(-c3ccccc3F)cc2C1NC(=O)O[C@@H]1CN2CCC1CC2` (stereo partly drawn) [Example 57, (S)-quinuclidin-3-yl (6-(2-fluorophenyl)-2,2-dimethyl-2,3-dihydro-1H-inden-1-yl)carbamate] had a negative-log IC50 (pIC50) (Homo sapiens, Jurkat, 72 h) of 7.30.
As to `CC1(C)Cc2ccc(-c3ccccc3Cl)cc2C1NC(=O)O[C@@H]1CN2CCC1CC2` (stereo partly drawn) [Example 58, (S)-quinuclidin-3-yl (6-(2-chlorophenyl)-2,2-dimethyl-2,3-dihydro-1H-inden-1-yl)carbamate], for the setting “Homo sapiens, Jurkat, 72 h”, the negative-log IC50 (pIC50) was 7.06.
As for `CC1(C)Cc2ccc(-c3ccccc3C(F)(F)F)cc2C1NC(=O)O[C@@H]1CN2CCC1CC2` (stereo partly drawn) [Example 59, (S)-quinuclidin-3-yl (2,2-dimethyl-6-(2-(trifluoromethyl)phenyl)-2,3-dihydro-1H-inden-1-yl)carbamate], where the note is “Homo sapiens, Jurkat, 72 h”, the pIC50 is 6.78.
For the setting “Homo sapiens, Jurkat, 72 h”, `Cc1ccc(-c2ccc3c(c2)C(NC(=O)O[C@@H]2CN4CCC2CC4)C(C)(C)C3)cc1` (stereo partly drawn) [Example 60, (S)-quinuclidin-3-yl (2,2-dimethyl-6-(p-tolyl)-2,3-dihydro-1H-inden-1-yl)carbamate] gave a negative logarithm of the IC50 (pIC50) of 6.95.
In the case of `CC1(C)Cc2ccc(-c3ccc(OC(F)F)cc3)cc2C1NC(=O)O[C@@H]1CN2CCC1CC2` (stereo partly drawn) [Example 61, (S)-quinuclidin-3-yl (6-(4-(difluoromethoxy)phenyl)-2,2-dimethyl-2,3-dihydro-1H-inden-1-yl)carbamate], the pIC50 (Homo sapiens, Jurkat, 72 h) was 7.40.
With `CC1(C)Cc2ccc(-c3ccc(F)c(F)c3)cc2C1NC(=O)O[C@@H]1CN2CCC1CC2` (stereo partly drawn) [Example 62, (S)-quinuclidin-3-yl (6-(3,4-difluorophenyl)-2,2-dimethyl-2,3-dihydro-1H-inden-1-yl)carbamate], the negative-log IC50 (pIC50) (Homo sapiens, Jurkat, 72 h) is 6.99.
`CC1(C)Cc2ccc(-c3ccc(F)cc3F)cc2C1NC(=O)O[C@@H]1CN2CCC1CC2` (stereo partly drawn) [Example 63, (S)-quinuclidin-3-yl (6-(2,4-difluorophenyl)-2,2-dimethyl-2,3-dihydro-1H-inden-1-yl)carbamate] gave a negative-log IC50 (pIC50) (Homo sapiens, Jurkat, 72 h) of 6.93.
For the setting “Homo sapiens, Jurkat, 72 h”, `CC1(C)Cc2ccc(-c3cccc(F)c3F)cc2C1NC(=O)O[C@@H]1CN2CCC1CC2` (stereo partly drawn) [Example 64, (S)-quinuclidin-3-yl (6-(2,3-difluorophenyl)-2,2-dimethyl-2,3-dihydro-1H-inden-1-yl)carbamate] showed a negative logarithm of the IC50 (pIC50) of 7.13.
As to `CC1(C)Cc2ccc(-c3cc(F)ccc3F)cc2C1NC(=O)O[C@@H]1CN2CCC1CC2` (stereo partly drawn) [Example 65, (S)-quinuclidin-3-yl (6-(2,5-difluorophenyl)-2,2-dimethyl-2,3-dihydro-1H-inden-1-yl)carbamate], the negative logarithm of the IC50 (pIC50) (Homo sapiens, Jurkat, 72 h) was 7.25.
In the case of `CC1(C)Cc2ccc(-c3cc(F)cc(F)c3)cc2C1NC(=O)O[C@@H]1CN2CCC1CC2` (stereo partly drawn) [Example 66, (S)-quinuclidin-3-yl (6-(3,5-difluorophenyl)-2,2-dimethyl-2,3-dihydro-1H-inden-1-yl)carbamate], the negative-log IC50 (pIC50) (Homo sapiens, Jurkat, 72 h) is 6.89.
In turn, `CC1(C)Cc2ccc(-c3ccc(F)c(F)c3F)cc2C1NC(=O)O[C@@H]1CN2CCC1CC2` (stereo partly drawn) [Example 67, (S)-quinuclidin-3-yl (2,2-dimethyl-6-(2,3,4-trifluorophenyl)-2,3-dihydro-1H-inden-1-yl)carbamate] showed a negative-log IC50 (pIC50) (Homo sapiens, Jurkat, 72 h) of 6.84.
In the case of `CC1(C)Cc2ccc(-c3cc(Cl)cc(Cl)c3)cc2C1NC(=O)O[C@@H]1CN2CCC1CC2` (stereo partly drawn) [Example 69, (S)-quinuclidin-3-yl (6-(3,5-dichlorophenyl)-2,2-dimethyl-2,3-dihydro-1H-inden-1-yl)carbamate], where the note is “Homo sapiens, Jurkat, 72 h”, the pIC50 is 6.40.
On the same count and under the same terms, the figure for `CC1(C)Cc2ccc(-c3ccc(Cl)c(Cl)c3)cc2C1NC(=O)O[C@@H]1CN2CCC1CC2` (stereo partly drawn) [Example 70, (S)-quinuclidin-3-yl (6-(3,4-dichlorophenyl)-2,2-dimethyl-2,3-dihydro-1H-inden-1-yl)carbamate] is 7.15.
In turn, `CC1(C)Cc2ccc(-c3cc(Cl)ccc3Cl)cc2C1NC(=O)O[C@@H]1CN2CCC1CC2` (stereo partly drawn) [Example 71, (S)-quinuclidin-3-yl (6-(2,5-dichlorophenyl)-2,2-dimethyl-2,3-dihydro-1H-inden-1-yl)carbamate] gave a pIC50 (Homo sapiens, Jurkat, 72 h) of 7.19.
The molecule `COCCOc1ccc(-c2ccc3c(c2)C(NC(=O)O[C@@H]2CN4CCC2CC4)C(C)(C)C3)cc1` (stereo partly drawn) [Example 72, (S)-quinuclidin-3-yl (6-(4-(2-methoxyethoxy)phenyl)-2,2-dimethyl-2,3-dihydro-1H-inden-1-yl)carbamate] showed a negative-log IC50 (pIC50) (Homo sapiens, Jurkat, 72 h) of 7.24.
As to `CC1(C)Cc2cc(-c3ccc(F)cc3)ccc2C1NC(=O)O[C@@H]1CN2CCC1CC2` (stereo partly drawn) [Example 73, (S)-quinuclidin-3-yl (5-(4-fluorophenyl)-2,2-dimethyl-2,3-dihydro-1H-inden-1-yl)carbamate], the pIC50 (Homo sapiens, Jurkat, 72 h) is 7.59.
In the case of `CC1(C)Cc2cc(-c3ccc(Cl)cc3)ccc2C1NC(=O)O[C@@H]1CN2CCC1CC2` (stereo partly drawn) [Example 74, (S)-quinuclidin-3-yl (5-(4-chlorophenyl)-2,2-dimethyl-2,3-dihydro-1H-inden-1-yl)carbamate], for the setting “Homo sapiens, Jurkat, 72 h”, the negative-log IC50 (pIC50) is 7.89.
With `CC1(C)Cc2cc(-c3ccc(C(F)(F)F)cc3)ccc2C1NC(=O)O[C@@H]1CN2CCC1CC2` (stereo partly drawn) [Example 75, (S)-quinuclidin-3-yl (2,2-dimethyl-5-(4-(trifluoromethyl)phenyl)-2,3-dihydro-1H-inden-1-yl)carbamate], the negative logarithm of the IC50 (pIC50) (Homo sapiens, Jurkat, 72 h) is 8.08.
On to `CC1(C)Cc2cc(-c3ccc(OC(F)(F)F)cc3)ccc2C1NC(=O)O[C@@H]1CN2CCC1CC2` (stereo partly drawn) [Example 76, (S)-quinuclidin-3-yl (2,2-dimethyl-5-(4-(trifluoromethoxy)phenyl)-2,3-dihydro-1H-inden-1-yl)carbamate], for which the pIC50 (Homo sapiens, Jurkat, 72 h) is 8.43.
Regarding `CC1(C)Cc2cc(-c3cccc(F)c3)ccc2C1NC(=O)O[C@@H]1CN2CCC1CC2` (stereo partly drawn) [Example 77, (S)-quinuclidin-3-yl (5-(3-fluorophenyl)-2,2-dimethyl-2,3-dihydro-1H-inden-1-yl)carbamate], the pIC50 (Homo sapiens, Jurkat, 72 h) was 8.20.
For the setting “Homo sapiens, Jurkat, 72 h”, `CC1(C)Cc2cc(-c3cccc(Cl)c3)ccc2C1NC(=O)O[C@@H]1CN2CCC1CC2` (stereo partly drawn) [Example 78, (S)-quinuclidin-3-yl (5-(3-chlorophenyl)-2,2-dimethyl-2,3-dihydro-1H-inden-1-yl)carbamate] gave a pIC50 of 8.46.
The molecule `CC1(C)Cc2cc(-c3cccc(C(F)(F)F)c3)ccc2C1NC(=O)O[C@@H]1CN2CCC1CC2` (stereo partly drawn) [Example 79, (S)-quinuclidin-3-yl (2,2-dimethyl-5-(3-(trifluoromethyl)phenyl)-2,3-dihydro-1H-inden-1-yl)carbamate] showed a pIC50 (Homo sapiens, Jurkat, 72 h) of 8.41.
In turn, `CC1(C)Cc2ccc(-c3cccc(OC(F)(F)F)c3)cc2C1NC(=O)O[C@@H]1CN2CCC1CC2` (stereo partly drawn) [Example 80, (S)-quinuclidin-3-yl (2,2-dimethyl-6-(3-(trifluoromethoxy)phenyl)-2,3-dihydro-1H-inden-1-yl)carbamate] had a negative-log IC50 (pIC50) of 8.39.
`CC1(C)Cc2cc(-c3ccccc3F)ccc2C1NC(=O)O[C@@H]1CN2CCC1CC2` (stereo partly drawn) [Example 81, (S)-quinuclidin-3-yl (5-(2-fluorophenyl)-2,2-dimethyl-2,3-dihydro-1H-inden-1-yl)carbamate] had a pIC50 (Homo sapiens, Jurkat, 72 h) of 7.91.
Consider `CC1(C)Cc2cc(-c3ccccc3Cl)ccc2C1NC(=O)O[C@@H]1CN2CCC1CC2` (stereo partly drawn) [Example 82, (S)-quinuclidin-3-yl (5-(2-chlorophenyl)-2,2-dimethyl-2,3-dihydro-1H-inden-1-yl)carbamate], for which, under “Homo sapiens, Jurkat, 72 h”, the negative-log IC50 (pIC50) is 8.49.
In the case of `CC1(C)Cc2cc(-c3ccccc3C(F)(F)F)ccc2C1NC(=O)O[C@@H]1CN2CCC1CC2` (stereo partly drawn) [Example 83, (S)-quinuclidin-3-yl (2,2-dimethyl-5-(2-(trifluoromethyl)phenyl)-2,3-dihydro-1H-inden-1-yl)carbamate], the pIC50 (Homo sapiens, Jurkat, 72 h) was 8.43.
Regarding `CC1(C)Cc2cc(-c3ccccc3OC(F)(F)F)ccc2C1NC(=O)O[C@@H]1CN2CCC1CC2` (stereo partly drawn) [Example 84, (S)-quinuclidin-3-yl (2,2-dimethyl-5-(2-(trifluoromethoxy)phenyl)-2,3-dihydro-1H-inden-1-yl)carbamate], the negative logarithm of the IC50 (pIC50) (Homo sapiens, Jurkat, 72 h) was 8.31.
In turn, `Cc1ccc(-c2ccc3c(c2)CC(C)(C)C3NC(=O)O[C@@H]2CN3CCC2CC3)cc1` (stereo partly drawn) [Example 85, (S)-quinuclidin-3-yl (2,2-dimethyl-5-(p-tolyl)-2,3-dihydro-1H-inden-1-yl)carbamate] had a pIC50 (Homo sapiens, Jurkat, 72 h) of 7.94.
With `CC1(C)Cc2cc(-c3ccc(OC(F)F)cc3)ccc2C1NC(=O)O[C@@H]1CN2CCC1CC2` (stereo partly drawn) [Example 86, (S)-quinuclidin-3-yl (5-(4-(difluoromethoxy)phenyl)-2,2-dimethyl-2,3-dihydro-1H-inden-1-yl)carbamate], the pIC50 (Homo sapiens, Jurkat, 72 h) is 7.86.
